Like-named read-outs stand apart in the source and are kept apart here.
Test system: chloroquine-sensitive (NF54) strain of P. falciparum
Experiment: In vitro asexual blood-stage antiplasmodium pLDH assay, NF54 strain
Type: cell-based
Conditions: Plasmodium falciparum
Procedure: Compounds were screened against multi-drug-resistant (K1) and sensitive (NF54) strains of P. falciparum in vitro using a parasite lactate dehydrogenase assay (pLDH) (the method is described fully in the Supporting Information). […]
In vitro Asexual Blood Stage Antiplasmodium Assay
Parasites were cultured as per the method of Trager and Jensen,1 with modifications. IC50 values were determined using parasite lactate dehydrogenase as a marker for survival (Makler […]
et al, 1993). The test samples were prepared to a 10 mmol/L stock solution in 100% DMSO.
Samples were tested as a suspension if not completely dissolved. Further dilutions to the desired starting concentration were freshly prepared in growth media on each occasion of the experiment. The standard antimalarial drugs chloroquine (CQ) and artesunate (Arts) were used as the reference drug in all experiments. A full dose-response was performed for all compounds in a 96-well plate to determine the concentration inhibiting 50% of parasite growth (IC50– value). Test samples were tested at a starting concentration of 6mmol/L, which was then serially diluted 2-fold in growth medium to generate the tested concentration range. The same dilution technique was used for all samples. CQ and Arts were tested from a starting concentration of 1µg/mL. The highest concentration of solvent to which the parasites were exposed was <0.1% and has no measurable effect on the parasite viability (data not shown).
The assay plate was incubated at 37 °C for 72h in a sealed gas chamber under 3% O2 and 4% CO2 with the balance being N2. After 72h, the wells in the assay plate were gently resuspended, and 15µL from each well was transferred to a duplicate plate containing 100µL of Malstat reagent and 25µL of nitroblue tetrazolium solution in each well. Plates were left to develop for 20 minutes in the dark and then absorbance of each well was quantified using a spectrophotometer at 620nm wavelength.
The remaining population of parasites at each concentration of the test compound was determined by comparing the absorbance of each well to the absorbance of a well containing […]
the drug-free control. […]
The initial 100 µg/mL solution is serially diluted 10-

Question: With `O=[N+]([O-])c1ccc(NCCN(CCNc2cc3[nH]c(-c4cccc(C(F)(F)F)c4)nc3cn2)Cc2ccc(Cl)cc2O)c2nonc12` [Compound 14-NBD, 5-Chloro-2-(((2-((7-nitrobenzo[c][1,2,5]oxadiazol-4-yl)amino)ethyl)(2-((2-(3-(trifluoromethyl)phenyl)-1H-imidazo[4,5-c]pyridin-6-yl)amino)ethyl)amino)methyl)phenol] as the compound, how does the IC50 (NF54, pLDH, 72 h, n ≥ 3, read-out: In vitro antiplasmodium activity IC50 PfNF54 strain) read?
Answer: 49 nM

Question: Which IC50 (NF54, controls, strain not stated in footnote, read-out: IC50 of controls in pLDH antiplasmodium assay) does the source give for `C[C@H]1[C@H](OC(=O)CCC(=O)O)O[C@@H]2O[C@@]3(C)CC[C@H]4[C@H](C)CC[C@@H]1[C@@]24OO3` [artesunate, reference compound] here?
Answer: 7 nM

Question: With `CCN(CC)CCCC(C)Nc1ccnc2cc(Cl)ccc12` (stereo not drawn) [chloroquine, reference compound] as the compound, how does the IC50 (NF54, read-out: IC50 of controls in pLDH antiplasmodium assay) read?
Answer: 12 nM

Source: article PMC10111423, “Antimalarial Imidazopyridines Incorporating an Intramolecular Hydrogen Bonding Motif: Medicinal Chemistry and Mechanistic Studies” (ACS Infectious Diseases, 2023)
